Measurements published in PubChem BioAssay (NCI).
Several values for one entry are separate records, joined by “and”; a condition that tells them apart may be missing. Identical values can stand only once.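 Following 48 hours of exposure in 96-well plates, responses at five concentrations were used to interpolate endpoints linearly. GI50 is the concentration that inhibits growth by half. Definition used: TGI = concentration required for complete inhibition of growth.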

Key:
Test in all cases: DTP human tumour cell line panel, 48 h
A549 NSCLC = tested on: A549 NSCLC
UACC-62 melanoma = tested on: UACC-62 melanoma
MDA-MB-435 = tested on: MDA-MB-435
KM12 colon = tested on: KM12 colon
A498 renal = tested on: A498 renal
SN12C renal = tested on: SN12C renal
OVCAR-3 ovarian = tested on: OVCAR-3 ovarian
HOP-92 NSCLC = tested on: HOP-92 NSCLC
K-562 leukemia = tested on: K-562 leukemia
PC-3 prostate = tested on: PC-3 prostate

In the case of `O=S(=O)(F)Cc1ccccc1`, the TGI (A549 NSCLC) is reported as greater than 100 µM, the TGI (UACC-62 melanoma) is reported as greater than 100 µM and the TGI (MDA-MB-435) is reported as greater than 100 µM. The TGI (KM12 colon) was greater than 100 µM, the TGI (A498 renal) was greater than 100 µM and the TGI (SN12C renal) was greater than 100 µM. The TGI (OVCAR-3 ovarian) was greater than 100 µM, the TGI (HOP-92 NSCLC) was greater than 100 µM and the TGI (K-562 leukemia) was greater than 100 µM. The TGI (PC-3 prostate) was greater than 100 µM.

With `CC(=O)CC[N+](C)(C)C` the TGI (A549 NSCLC) was greater than 94.6 µM, the TGI (UACC-62 melanoma) was 52.4 µM and the TGI (MDA-MB-435) was 76.7 µM. It also gave a TGI (KM12 colon) greater than 81.5 µM, a TGI (A498 renal) of 91.9 µM and a TGI (SN12C renal) of 53.6 µM. The TGI (OVCAR-3 ovarian) was 40.7 µM, the TGI (HOP-92 NSCLC) was 22.7 µM and the TGI (K-562 leukemia) was 13.5 µM. It also gave a TGI (PC-3 prostate) of 99.5 µM.

For `COc1ccc(CCN2CCCn3c2nc2ccccc2c3=O)cc1`, the GI50 (A549 NSCLC) was 0.087 µM, the TGI (A549 NSCLC) was greater than 100 µM and the GI50 (UACC-62 melanoma) was 0.185 µM. It also gave a TGI (UACC-62 melanoma) greater than 100 µM, a GI50 (MDA-MB-435) of 0.022 µM and a TGI (MDA-MB-435) of 0.061 µM. It also gave a GI50 (KM12 colon) of 0.0445 µM, a TGI (KM12 colon) greater than 20.5 µM and a GI50 (A498 renal) of 0.0296 µM. It also gave a TGI (A498 renal) of 0.814 µM, a GI50 (SN12C renal) of 1.1 µM and a TGI (SN12C renal) greater than 100 µM. For the same molecule, the GI50 (OVCAR-3 ovarian) was 0.0328 µM, the TGI (OVCAR-3 ovarian) was 0.136 µM and the GI50 (HOP-92 NSCLC) was 3.33 µM. It also gave a TGI (HOP-92 NSCLC) greater than 95.6 µM, a GI50 (K-562 leukemia) of less than 0.0205 µM and a TGI (K-562 leukemia) greater than 100 µM. It also gave a GI50 (PC-3 prostate) of 0.127 µM and a TGI (PC-3 prostate) greater than 100 µM.

Work on `O=C(CSSCC(=O)c1ccc(Cl)cc1)c1ccc(Cl)cc1` yielded a GI50 (A549 NSCLC) of 10.4 µM, a TGI (A549 NSCLC) of 43.2 µM and a GI50 (UACC-62 melanoma) of 3.1 µM. It also gave a TGI (UACC-62 melanoma) of 14.5 µM, a GI50 (MDA-MB-435) of 2.57 µM and a TGI (MDA-MB-435) of 11 µM. It also gave a GI50 (KM12 colon) of 3.82 µM, a TGI (KM12 colon) of 24.4 µM and a GI50 (A498 renal) of 9.77 µM. The TGI (A498 renal) was 23 µM, the GI50 (SN12C renal) was 3.7 µM and the TGI (SN12C renal) was 36.4 µM. For the same molecule, the GI50 (OVCAR-3 ovarian) was 5.39 µM, the TGI (OVCAR-3 ovarian) was 26.1 µM and the GI50 (HOP-92 NSCLC) was 5.37 µM. The TGI (HOP-92 NSCLC) was 19.4 µM, the GI50 (K-562 leukemia) was 3.28 µM and the TGI (K-562 leukemia) was greater than 100 µM. The GI50 (PC-3 prostate) was 6.12 µM and the TGI (PC-3 prostate) was 30.5 µM.

For `CCC/C=C/C=C/C(=O)OC1/C(=C/C(=O)OC)CC2CC(C(C)O)OC(=O)CC(O)CC3CC(OC(C)=O)C(C)(C)C(O)(CC4C/C(=C/C(=O)OC)CC(/C=C/C(C)(C)C1(O)O2)O4)O3` (centres undefined), the GI50 (A549 NSCLC) was 2.58 µM and 5.95 µM and > 12.5 µM, the TGI (A549 NSCLC) was 8.17 µM and 11 µM and > 12.5 µM and the GI50 (UACC-62 melanoma) was > 10.9 µM and 5.26 µM and > 12.5 µM. The TGI (UACC-62 melanoma) was > 10.9 µM and 11 µM and > 12.5 µM, the GI50 (MDA-MB-435) was greater than 12.5 µM and the TGI (MDA-MB-435) was 11 µM and > 12.5 µM. For the same molecule, the GI50 (KM12 colon) was > 10.9 µM and 6.75 µM and > 12.5 µM, the TGI (KM12 colon) was > 10.9 µM and 9.07 µM and > 12.5 µM and the GI50 (A498 renal) was 7.67 µM and 9.27 µM. For the same molecule, the TGI (A498 renal) was 10.9 µM and 11 µM and > 12.5 µM, the GI50 (SN12C renal) was > 10.9 µM and 7.93 µM and > 12.5 µM and the TGI (SN12C renal) was > 10.9 µM and 11 µM and > 12.5 µM. For the same molecule, the GI50 (OVCAR-3 ovarian) was > 10.9 µM and 8.33 µM and > 12.5 µM, the TGI (OVCAR-3 ovarian) was > 10.9 µM and 11 µM and > 12.5 µM and the GI50 (HOP-92 NSCLC) was 7.79 µM and 5.61 µM and 4.84 µM. The TGI (HOP-92 NSCLC) was 10.9 µM and 11 µM and > 12.5 µM, the GI50 (K-562 leukemia) was 8.57 µM and 3.77 µM and > 12.5 µM and the TGI (K-562 leukemia) was 10.9 µM and 11 µM and > 12.5 µM. The GI50 (PC-3 prostate) was greater than 12.5 µM and the TGI (PC-3 prostate) was 11 µM and > 12.5 µM.

For `COc1ccc(-n2cc(-c3cc(OC)c(OC)c(OC)c3)nc2SCc2cccc(C#N)c2)cc1OC`, the GI50 (A549 NSCLC) was 82.3 µM, the TGI (A549 NSCLC) was greater than 100 µM and the GI50 (UACC-62 melanoma) was greater than 100 µM. For the same molecule, the TGI (UACC-62 melanoma) was greater than 100 µM, the GI50 (MDA-MB-435) was 90.5 µM and the TGI (MDA-MB-435) was greater than 100 µM. The GI50 (KM12 colon) was greater than 100 µM, the TGI (KM12 colon) was greater than 100 µM and the GI50 (A498 renal) was greater than 100 µM. The TGI (A498 renal) was greater than 100 µM, the GI50 (SN12C renal) was greater than 100 µM and the TGI (SN12C renal) was greater than 100 µM. For the same molecule, the GI50 (OVCAR-3 ovarian) was 65 µM, the TGI (OVCAR-3 ovarian) was greater than 100 µM and the GI50 (HOP-92 NSCLC) was 27.8 µM. It also gave a TGI (HOP-92 NSCLC) of 78.9 µM, a GI50 (K-562 leukemia) of 56.9 µM and a TGI (K-562 leukemia) greater than 100 µM. It also gave a GI50 (PC-3 prostate) of 59.8 µM and a TGI (PC-3 prostate) greater than 100 µM.

`COc1ccc(C2=C(c3ccc(OC)cc3)C(=O)OC2)cc1` was tested, and the GI50 (A549 NSCLC) was 2.57 µM, the TGI (A549 NSCLC) was greater than 100 µM and the GI50 (UACC-62 melanoma) was 1.3 µM. It also gave a TGI (UACC-62 melanoma) of 20.6 µM, a GI50 (MDA-MB-435) of 0.0752 µM and a TGI (MDA-MB-435) of 0.4 µM. For the same molecule, the GI50 (KM12 colon) was 0.555 µM, the TGI (KM12 colon) was greater than 37.7 µM and the GI50 (A498 renal) was 0.528 µM. The TGI (A498 renal) was 3.66 µM, the GI50 (SN12C renal) was 7.68 µM and the TGI (SN12C renal) was 42.2 µM. The GI50 (OVCAR-3 ovarian) was 0.216 µM, the TGI (OVCAR-3 ovarian) was 0.712 µM and the GI50 (HOP-92 NSCLC) was 7.45 µM. For the same molecule, the TGI (HOP-92 NSCLC) was 51.9 µM, the GI50 (K-562 leukemia) was 1.24 µM and the TGI (K-562 leukemia) was 24.3 µM. The GI50 (PC-3 prostate) was 5.19 µM and the TGI (PC-3 prostate) was 44.1 µM.

Work on `O=[N+]([O-])c1ccc(Sc2cccc[n+]2[O-])c2nonc12` yielded a GI50 (A549 NSCLC) of 5.61 µM, a TGI (A549 NSCLC) greater than 57.2 µM and a GI50 (UACC-62 melanoma) of 4.58 µM. It also gave a TGI (UACC-62 melanoma) of 22.6 µM, a GI50 (MDA-MB-435) of 6.24 µM and a TGI (MDA-MB-435) of 20.1 µM. It also gave a GI50 (KM12 colon) of 4.02 µM, a TGI (KM12 colon) of 14.4 µM and a GI50 (A498 renal) of 4.88 µM. The TGI (A498 renal) was 91.9 µM, the GI50 (SN12C renal) was 8.04 µM and the TGI (SN12C renal) was 22.6 µM. The GI50 (OVCAR-3 ovarian) was 1.07 µM, the TGI (OVCAR-3 ovarian) was 2.48 µM and the GI50 (HOP-92 NSCLC) was 5.45 µM. It also gave a TGI (HOP-92 NSCLC) of 23.7 µM, a GI50 (K-562 leukemia) of 2.1 µM and a TGI (K-562 leukemia) greater than 100 µM. It also gave a GI50 (PC-3 prostate) of 2.6 µM and a TGI (PC-3 prostate) of 13 µM.

In the case of `CCc1nc(N)nc(N)c1C#CC(C)c1ccc(-c2ccncc2)cc1Cl` (centres undefined), the GI50 (A549 NSCLC) is reported as less than 0.005 µM, the TGI (A549 NSCLC) is reported as 2 µM and 11.4 µM and the GI50 (UACC-62 melanoma) is reported as < 0.005 µM and 0.0186 µM. The TGI (UACC-62 melanoma) was 4.39 µM and 10.9 µM, the TGI (MDA-MB-435) was 4.85 µM and 14.3 µM and the GI50 (KM12 colon) was 0.0271 µM and 0.0678 µM. The TGI (KM12 colon) was 5.73 µM and 14.5 µM, the GI50 (A498 renal) was 0.109 µM and 0.223 µM and the TGI (A498 renal) was 1.64 µM and 5.81 µM. The GI50 (SN12C renal) was 0.0189 µM and 0.148 µM, the TGI (SN12C renal) was 5.67 µM and 17.2 µM and the GI50 (OVCAR-3 ovarian) was 0.0421 µM and 0.098 µM. The TGI (OVCAR-3 ovarian) was 2.06 µM and 13.3 µM, the GI50 (HOP-92 NSCLC) was 0.109 µM and 0.547 µM and the TGI (HOP-92 NSCLC) was 1.56 µM and 6.36 µM. The GI50 (K-562 leukemia) was less than 0.005 µM, the TGI (K-562 leukemia) was 28.5 µM and 15.2 µM and the GI50 (PC-3 prostate) was less than 0.005 µM. The TGI (PC-3 prostate) was 4.85 µM and 12.5 µM.

For `C[C@H]1C[C@@H](n2c(Nc3ccc(OC(F)(F)F)cc3)nc3cc(CCC(=O)O)ccc32)CC(C)(C)C1`, the GI50 (A549 NSCLC) was 11.1 µM, the TGI (A549 NSCLC) was 30.2 µM and the GI50 (UACC-62 melanoma) was 4.91 µM. It also gave a TGI (UACC-62 melanoma) of 17.7 µM, a GI50 (MDA-MB-435) of 10.4 µM and a TGI (MDA-MB-435) of 22.9 µM. It also gave a GI50 (KM12 colon) of 10.5 µM, a TGI (KM12 colon) of 24 µM and a GI50 (A498 renal) of 11.1 µM. For the same molecule, the TGI (A498 renal) was 23.2 µM, the GI50 (SN12C renal) was 9.95 µM and the TGI (SN12C renal) was 28 µM. The GI50 (OVCAR-3 ovarian) was 13 µM, the TGI (OVCAR-3 ovarian) was 25.8 µM and the GI50 (HOP-92 NSCLC) was 16.4 µM. The TGI (HOP-92 NSCLC) was 32.1 µM, the GI50 (K-562 leukemia) was 11.9 µM and the TGI (K-562 leukemia) was 37.7 µM. The GI50 (PC-3 prostate) was 11.9 µM and the TGI (PC-3 prostate) was 27.9 µM.
